System: Caco-2 cells
Assay: In situ global proteomics profiling of Caco-2 cells (LC-MS/MS, LFQ)
Assay type: cell-based, human
Settings: for Log2 20 µM DEP/DMSO: LFQ
Experimental: Figure 7 Identification of PPARγ as target of deoxyelephantopin and screening of DEP derivatives as PPARγ antagonists. (a) Quantification of endogenous PPARγ enriched from Caco-2 cells using 10 μM 24c following in situ treatment with DEP (20 μM) or DMSO (normalized LFQ values±s.d. are shown; n=6). (b) Changes in expression levels of five PPARγ-dependent proteins following 24 h treatment of Caco-2 cells with DMSO, rosiglitazone (10 μM), T0070907 (50 μM) or DEP (20 μM; LFQ ratios±s.d. are shown; n=3). **P<0.005 and ***P<0.0005 by two-sided Student's t-test. (c) Gel-based competitive screening of DEP and analogues as PPARγ antagonists against recombinant human enzyme (top). hPPARγ was treated with each compound (20 μM) for 1 h followed by treatment with 24c-Cy3 (10 μM) as probe. Quantification of fluorescence intensity in the competitive screening for PPARγ antagonists (bottom; values±s.d. are shown; n=3).
Caco-2 cells were treated with DMSO, PPARγ agonist rosiglitazone, antagonist T0070907 or DEP for 24 h, the cells were collected and the proteomes were comparatively analysed by LC–MS/MS. […] Furthermore, the list of 43 dysregulated proteins was analysed and classified using the GOrilla pathway analysis tool (Supplementary Fig. 15). […]
In situ global proteomics profiling using LC-MS/MS. Caco- ’ cells/mL) in a 6-well plate, allowed to grow to confluence and to differentiate for 28 days. The wells were washed one time with PBS and treated with either DMSO, 10 µM rosiglitazone, 50 µM T0070907 or 20 µM DEP for 24 hours. Cells were washed two times with PBS and lysates were prepared. Samples (30 µg) were denatured with 6 M urea in 50 mM NH4HCO3, reduced […]
dark. Samples were diluted to 2 M urea with 50 mM NH4HCO3, and digested with trypsin ([…] for 12 hours at 37 °C. Samples were acidified to a final concentration of 5% acetic acid, desalted over a self-packed C18 spin column and […]
dried. […]
LC-MS/MS analysis. Peptides were resuspended in water with 0.1% formic acid (FA) and analyzed using Proxeon EASY-nLC 1000 nano-UHPLC coupled to QExactive Plus Quadrupole-Orbitrap mass spectrometer (Thermo Scientific). The chromatography column […]
H2O (Buffer A) and 0.1% FA in MeCN (Buffer B). Peptides were eluted into the mass spectrometer at a flow rate of 300 nL/min. over a 240 min. linear gradient (3-35% Buffer B) at 50 °C. Data was acquired in data-dependent mode (top- N = ’ […]
and isotope exclusion was enabled.
MaxQuant analysis. The MS data was analyzed with MaxQuant (V1.5.2.8) and searched against the human proteome (Uniprot, 89,649 entries) and a common list of contaminants (included in MaxQuant). The first peptide search tolerance was set to 20 ppm, 10 ppm was used for the main peptide search and fragment mass tolerance was set to 0.02 Da. The false discovery rate for peptides, proteins and sites identification was set to 1%. The minimum peptide length was set to 6 amino acids and peptide re-quantification, label-free quantification (MaxLFQ) and “ ” were enabled. The minimal number of peptides per protein was set to two. Oxidized methionines and N-terminal acetylation were searched as variable modifications and carbamidomethylation of cysteines was searched as a fixed modification. For SILAC experiments 13C6 L-lysine and 13C6 15N4 L-arginine were set as heavy isotope labels and 12C6 L-lysine and 12C6 14N4 L-arginine as light isotope labels.
19 d k g h ARγ. 19a was covalently docked to the crystal structure of human γ ZU 190 using the GOLD suite (V5.3, CCDC). The default GOLD fitness function was used to determine the best binding configuration. The distance for hydrogen bonding was set to 3 Å.
IAA competition of 23c, 24c and DEP h ARγ. γ
(500 ng in 9 µL PBS) was treated with either 100 µM DEP, 23c, 24c or DMSO (1 µL of 10x stock in DMSO) for one hour. Samples were denatured with 6 M urea in 50 mM NH4HCO3, […]
in the dark. Samples were diluted to 2 M urea with 50 mM NH4HCO3, and digested with trypsin […]

C=C(C)C(=O)O[C@H]1CC2=C[C@@H](C/C(C)=C/[C@H]3OC(=O)C(=C)[C@H]13)OC2=O [deoxyelephantopin]
mode of action on PPARγ in cells (20 µM, 24 h, compared with rosiglitazone and T0070907): antagonist of PPARγ | Log2 20 µM DEP/DMSO (protein ALDH3B1, 24 h): -0.67 | Log2 20 µM DEP/DMSO (protein ARHGAP17, 24 h): -0.97 | Log2 20 µM DEP/DMSO (protein ARMCX3, 24 h): -0.92 | Log2 20 µM DEP/DMSO (protein COL4A3BP, 24 h): -0.76 | Log2 20 µM DEP/DMSO (protein CROT, 24 h): -0.68 | Log2 20 µM DEP/DMSO (protein CTBP2, 24 h): 0.72 | Log2 20 µM DEP/DMSO (protein DDX21, 24 h): 0.82 | Log2 20 µM DEP/DMSO (protein FNTA, 24 h): -0.62 | Log2 20 µM DEP/DMSO (protein GID8, 24 h): 0.68 | Log2 20 µM DEP/DMSO (protein GIPC2, 24 h): -0.69 | Log2 20 µM DEP/DMSO (protein GIT2, 24 h): -0.92 | Log2 20 µM DEP/DMSO (protein GSTA1, 24 h): -0.81 | Log2 20 µM DEP/DMSO (protein GSTA2, 24 h): -0.87 | Log2 20 µM DEP/DMSO (protein GSTM3, 24 h): -0.84 | Log2 20 µM DEP/DMSO (protein HIGD1A, 24 h): 0.69 | Log2 20 µM DEP/DMSO (protein IREB2, 24 h): 0.65 | Log2 20 µM DEP/DMSO (protein ITGB4, 24 h): 0.92 | Log2 20 µM DEP/DMSO (protein LDHD, 24 h): -0.60 | Log2 20 µM DEP/DMSO (protein LDLR, 24 h): 1.72 | Log2 20 µM DEP/DMSO (protein LIPA, 24 h): -0.68 | Log2 20 µM DEP/DMSO (protein MARCH5, 24 h): 1.85 | Log2 20 µM DEP/DMSO (protein MGMT, 24 h): -0.81 | Log2 20 µM DEP/DMSO (protein MYO15B, 24 h): -1.00 | Log2 20 µM DEP/DMSO (protein NOP9, 24 h): 1.57 | Log2 20 µM DEP/DMSO (protein OAS1, 24 h): 1.10 | Log2 20 µM DEP/DMSO (protein OGDHL, 24 h): -0.98 | Log2 20 µM DEP/DMSO (protein PANK4, 24 h): -0.81 | Log2 20 µM DEP/DMSO (protein PHPT1, 24 h): -0.79 | Log2 20 µM DEP/DMSO (protein PSIP1, 24 h): 0.76 | Log2 20 µM DEP/DMSO (protein RAB5B, 24 h): 0.79 | Log2 20 µM DEP/DMSO (protein RBP4, 24 h): -1.03 | Log2 20 µM DEP/DMSO (protein RRS1, 24 h): 0.65 | Log2 20 µM DEP/DMSO (protein SAMHD1, 24 h): -0.97 | Log2 20 µM DEP/DMSO (protein SCAMP3, 24 h): 0.63 | Log2 20 µM DEP/DMSO (protein SETDB1, 24 h): 0.81 | Log2 20 µM DEP/DMSO (protein SLC26A3, 24 h): -0.98 | Log2 20 µM DEP/DMSO (protein SLC39A14, 24 h): -0.74 | Log2 20 µM DEP/DMSO (protein STK4, 24 h): -0.74 | Log2 20 µM DEP/DMSO (protein SURF6, 24 h): 1.30 | Log2 20 µM DEP/DMSO (protein TGOLN2, 24 h): 1.03 | Log2 20 µM DEP/DMSO (protein TPD52L1, 24 h): -0.71 | Log2 20 µM DEP/DMSO (protein TTR, 24 h): -0.97 | Log2 20 µM DEP/DMSO (protein VPS52, 24 h): 0.63

Source: article PMC4992173, “Divergent synthesis and identification of the cellular targets of deoxyelephantopins” (Nature Communications, 2016)
